Test results published in US20240307362A1 (priority 2019, published 2024).
Like-named read-outs stand apart in the source and are kept apart here.

How the values were obtained:
[1] = biological target: mutEGFR (D770_N771insSVD) (Homo sapiens (Human), UniProt P00533, INS770SVD); test: biochemical; conditions: mutEGFR (D770_N771 insSVD) at 2 mM ATP IC50, 2 mM ATP
human Bub1 = human Bub1 (Homo sapiens (Human), UniProt O43683); test: Bub1 high ATP kinase assay (TR-FRET); type: biochemical; conditions: read-out: Bub1 high ATP (2 mM) IC50; 2 mM ATP
Excerpt: Bub1-inhibitory activity of compounds of the present invention at a high ATP concentration was quantified employing the Bub1 TR-FRET high ATP kinase assay as described in the following paragraphs.
N-terminally His6-tagged recombinant catalytic domain of human Bub1 (amino acids 704-1085), expressed in insect cells (Hi5) and purified by Ni-NTA affinity chromatography and subsequent size exclusion chromatography, was used as enzyme.

Ba/F3-EGFR-insSVD = test: Ba/F3 cell survival assay, EGFR-insSVD; type: cell-based
Outline: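 Ba/F3 cells stably expressing WT EGFR or EGFR-insSVD via retrovirus, grown without IL-3 on 10 ng/mL EGF, plated at 4000 cells/well. Compound exposure 48 h at 37 °C; viability read by CellTiter-Glo luminescence.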

Ba/F3-EGFR-WT = test: Ba/F3 cell survival assay, WT EGFR; type: cell-based
[2] = read-out: BA/F3 (insSVD) IC50, cell viability, Cell Titer-Glo, 48 h, with 10 ng/mL EGF, without IL-3
[3] = read-out: BA/F3 (wild type) IC50, cell viability, Cell Titer-Glo, 48 h, with 10 ng/mL EGF, without IL-3
[4] = Mus musculus, BaF3, 48 h, read-out: BA/F3 (insSVD) IC50, cell viability, Cell Titer-Glo, 48 h, with 10 ng/mL EGF, without IL-3
[5] = Mus musculus, BaF3, 48 h, read-out: BA/F3 (wild type) IC50, cell viability, Cell Titer-Glo, 48 h, with 10 ng/mL EGF, without IL-3

Chain of human Bub1 (O43683 704-1085): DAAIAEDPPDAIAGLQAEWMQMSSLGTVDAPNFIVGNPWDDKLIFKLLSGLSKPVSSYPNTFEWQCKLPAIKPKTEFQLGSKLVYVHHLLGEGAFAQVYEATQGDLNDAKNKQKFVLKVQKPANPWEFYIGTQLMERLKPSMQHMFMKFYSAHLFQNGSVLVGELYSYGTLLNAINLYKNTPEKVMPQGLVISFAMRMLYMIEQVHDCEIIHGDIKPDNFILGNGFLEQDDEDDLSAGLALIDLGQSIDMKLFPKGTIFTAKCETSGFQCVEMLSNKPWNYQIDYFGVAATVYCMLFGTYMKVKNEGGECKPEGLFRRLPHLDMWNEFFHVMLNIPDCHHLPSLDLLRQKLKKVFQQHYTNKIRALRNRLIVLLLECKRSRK
Chain of mutEGFR (D770_N771insSVD) (P00533 other isoform, or with tags, fused parts or gaps ins SVD behind 770): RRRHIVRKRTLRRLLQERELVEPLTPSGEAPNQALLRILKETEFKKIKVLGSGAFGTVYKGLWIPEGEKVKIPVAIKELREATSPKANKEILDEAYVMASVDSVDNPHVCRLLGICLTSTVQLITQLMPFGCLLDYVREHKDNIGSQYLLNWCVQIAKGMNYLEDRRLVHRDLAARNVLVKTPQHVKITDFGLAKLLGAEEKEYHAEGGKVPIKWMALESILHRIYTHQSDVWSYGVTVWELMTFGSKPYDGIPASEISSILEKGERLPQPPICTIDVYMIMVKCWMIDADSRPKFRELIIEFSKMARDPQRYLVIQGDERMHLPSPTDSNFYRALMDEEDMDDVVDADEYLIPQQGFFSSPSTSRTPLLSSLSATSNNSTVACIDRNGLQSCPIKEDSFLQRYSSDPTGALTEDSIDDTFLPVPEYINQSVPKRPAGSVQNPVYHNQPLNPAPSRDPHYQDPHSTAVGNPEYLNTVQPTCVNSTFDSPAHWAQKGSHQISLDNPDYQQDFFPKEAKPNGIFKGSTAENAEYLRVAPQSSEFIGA

Row | Compound | IC50 [1] [nM] | IC50 (human Bub1) [µM] | IC50 (Ba/F3-EGFR-insSVD; [2]) [nM] | IC50 (Ba/F3-EGFR-WT; [3]) [nM] | IC50 (Ba/F3-EGFR-insSVD; [4]) [nM] | IC50 (Ba/F3-EGFR-WT; [5]) [nM]
1 | Cc1c(F)cccc1Nc1c(-c2ccncc2OCC2(C)CCO2)[nH]c2c1C(=O)NCC2 (single isomer, unassigned; (+)) [Example 85, (+)-3-(3-fluoro-2-methylanilino)-2-(3-{[2-methyloxetan-2-yl]methoxy}pyridin-4-yl)-1,5,6,7-tetrahydro-4H-pyrrolo[3,2-c]pyridin-4-one] | 0.107 | 15.8 | 43.7 | 1260 | – | –
2 | CCC1(COc2cnccc2-c2[nH]c3c(c2Nc2cccc(F)c2OC)C(=O)NCC3)COC1 [Example 88, 2-{3-[(3-ethyloxetan-3-yl)methoxy]pyridin-4-yl}-3-(3-fluoro-2-methoxyanilino)-1,5,6,7-tetrahydro-4H-pyrrolo[3,2-c]pyridin-4-one] | 0.0873 | 7.49 | – | – | 66.8 | 1130
3 | Cc1c(Cl)cccc1Nc1c(-c2ccncc2OC[C@]2(C)CCO2)[nH]c2c1C(=O)NCC2 (single isomer, unassigned) [Example 82, (+)-3-(3-chloro-2-methylanilino)-2-(3-{[2-methyloxetan-2-yl]methoxy}pyridin-4-yl)-1,5,6,7-tetrahydro-4H-pyrrolo[3,2-c]pyridin-4-one] | 0.134 | 5.98 | – | – | 34.8 | 673
4 | CCC1(COc2cnccc2-c2[nH]c3c(c2Nc2cccc(Cl)c2C)C(=O)NCC3)COC1 [Example 23, 3-(3-chloro-2-methylanilino)-2-{3-[(3-ethyloxetan-3-yl)methoxy]pyridin-4-yl}-1,5,6,7-tetrahydro-4H-pyrrolo[3,2-c]pyridin-4-one] | 0.96 | > 5.71 | – | – | 190 | 3380
5 | CCc1c(Cl)cccc1Nc1c(-c2ccncc2OCC2(C)CCO2)[nH]c2c1C(=O)NCC2 (stereo not shown) [Example 78, 3-(3-chloro-2-ethylanilino)-2-(3-{[2-methyloxetan-2-yl]methoxy}pyridin-4-yl)-1,5,6,7-tetrahydro-4H-pyrrolo[3,2-c]pyridin-4-one] | 0.267 | 2.8 | – | – | 30.4 | 698
6 | Cc1c(Cl)cccc1Nc1c(-c2ccncc2OCC2(C)CCO2)[nH]c2c1C(=O)NCC2 (single isomer, unassigned; (-)) [Example 81, (−)-3-(3-chloro-2-methylanilino)-2-(3-{[2-methyloxetan-2-yl]methoxy}pyridin-4-yl)-1,5,6,7-tetrahydro-4H-pyrrolo[3,2-c]pyridin-4-one] | 0.129 | 5.05 | – | – | 96.4 | 664
7 | Cc1cccc(Nc2c(-c3ccncc3OCC3(C)CCO3)[nH]c3c2C(=O)NCC3)c1Cl (racemic) [Example 55, 3-(2-chloro-3-methylanilino)-2-{3-[(2-methyloxetan-2-yl)methoxy]pyridin-4-yl}-1,5,6,7-tetrahydro-4H-pyrrolo[3,2-c]pyridin-4-one] | 0.138 | 15.4 | – | – | 67.3 | 593
8 | COc1c(Cl)cc(F)cc1Nc1c(-c2ccncc2OCC2(C)CCO2)[nH]c2c1C(=O)NCC2 (racemic) [Example 68, 3-(3-chloro-5-fluoro-2-methoxyanilino)-2-(3-{[2-methyloxetan-2-yl]methoxy}pyridin-4-yl)-1,5,6,7-tetrahydro-4H-pyrrolo[3,2-c]pyridin-4-one] | 0.215 | > 20 | – | – | 103 | 1260
9 | Cc1c(Cl)cccc1Nc1c(-c2ccncc2OCC2(C)CCO2)[nH]c2c1C(=O)NCC2 (racemic) [Example 80, 3-(3-chloro-2-methylanilino)-2-(3-{[2-methyloxetan-2-yl]methoxy}pyridin-4-yl)-1,5,6,7-tetrahydro-4H-pyrrolo[3,2-c]pyridin-4-one] | 0.187 | 6.64 | – | – | 35.2 | 546
10 | Cc1cccc(Nc2c(-c3ccncc3OCC3(C)CCO3)[nH]c3c2C(=O)NCC3)c1Cl (single isomer, unassigned; (-)) [Example 57, (−)-3-(2-chloro-3-methylanilino)-2-{3-[(2-methyloxetan-2-yl)methoxy]pyridin-4-yl}-1,5,6,7-tetrahydro-4H-pyrrolo[3,2-c]pyridin-4-one] | 0.264 | 13 | 402 | 3250 | – | –
